The values that follow come from ChEMBL document CHEMBL1201862, “PubChem BioAssay data set” (2004).

Some test systems named below: T47D; PC-3; 786-0; KM-20L2; DLD-1; HOP-18; XF498; LXFL 529; RXF 631.
Common to all, as to assay: NCI anticancer screen, dose series, 48 h

Each structure is given as a SMILES string.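 Values below derive from 48-hour exposures of cells grown in 96-well plates, with endpoints linearly interpolated between the two concentrations bracketing the appropriate inhibition level. At the GI50, growth is halved.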 Activity calls are given as the source filed them. Rule as the data show it: active = GI50 up to about 1.1 µM and inactive = higher.

For `Cc1cc(Cc2cc(Cc3cc(C)cc(C(C)(C)C)c3O)c(C)cc2C)c(O)c(C(C)(C)C)c1`, the GI50 with T47D was 14 µM (inactive); in the experiment on PC-3, > 100 µM (inactive); with 786-0, 17.1 µM (inactive).
For `C=CCn1c(=O)ccn(COCCO)c1=O`, the GI50 with T47D and with PC-3 was > 100 µM (inactive) throughout.
With `CCOC(=O)c1cc2c([N+](=O)[O-])c(NC(C)=O)ccc2s1`, the GI50 in the experiment on T47D was 15 µM (inactive); in the experiment on PC-3, 33.5 µM (inactive); in the experiment on 786-0 it was 62.8 µM (inactive).
`CN(O)C(=O)CCCC(=O)NCC(C)(C)CNC(=O)CCCC(=O)N(C)O`: the GI50 in the experiment on T47D and with PC-3 was > 100 µM (inactive) throughout.
In the case of `CSCCC(N)P(C)(=O)O` (configuration not stated), the GI50 in the experiment on T47D, in the experiment with PC-3 and in the experiment on 786-0 was > 100 µM (inactive) each time.
`O=C(CSCC(=O)N/N=C/c1cc(I)cc(I)c1O)N/N=C/c1cc(I)cc(I)c1O`: the GI50 in the experiment on T47D was 34.3 µM (inactive); in the experiment on PC-3 it was 32.3 µM (inactive); in the experiment on 786-0 it was 5.83 µM (inactive).
For the compound `COc1ccc(C2CC(c3sc(Nc4ccc(C)cc4)nc3C)=NN2)cc1` (configuration not stated), the GI50 in the experiment on KM-20L2 is 16.1 µM (inactive); in the experiment on DLD-1 it was 14 µM (inactive); in the experiment with HOP-18 it was 15.3 µM (inactive); with XF498, 21 µM (inactive).
Take `c1cc2nnc1SCCCSc1ccc(nn1)SCCCS2`: the GI50 with T47D is 31.3 µM (inactive); with PC-3, 38.7 µM (inactive); with 786-0 it was 24.2 µM (inactive).
For `O=C1/C(=C/c2ccccc2)NC(=S)N1CN1CCOCC1`, the GI50 in the experiment with PC-3 and in the experiment with 786-0 was > 100 µM (inactive) throughout.
With `O=[N+]([O-])C(/C=C(\Cl)[N+](=O)[O-])=C1Nc2ccccc2N1`, the values for the GI50 in the experiment with T47D, in the experiment on PC-3 and in the experiment on 786-0 were 17.9 µM (inactive), 46.3 µM (inactive) and 52.4 µM (inactive), respectively.
For `O=P(CCOc1ccccc1OCCP(=O)(c1ccccc1)c1ccc2c(c1)OCCOCCOCCOCCO2)(c1ccccc1)c1ccc2c(c1)OCCOCCOCCOCCO2` (configuration not stated), the GI50 in the experiment with LXFL 529, with KM-20L2, in the experiment with DLD-1, in the experiment on XF498 and in the experiment on 786-0 was > 100 µM (inactive) in each case.
Consider `CC(Oc1ccccc1Cl)C(=O)NN1C(=O)CSC1c1ccc(Cl)cc1` (configuration not stated), for which the results for the GI50 in the experiment with T47D, in the experiment with PC-3 and with 786-0 were 20.1 µM (inactive), 18.9 µM (inactive) and 15.2 µM (inactive), respectively.
Taken in the same sequence, the figures for `C=CCN1C(=O)/C(=C/c2ccc(OC)cc2)NC1=S` were 42.2 µM (inactive), 84.5 µM (inactive) and > 100 µM (inactive).
Take `O=CN1CCC23CC(O)CCC2C1Cc1cc(Oc2nnnn2-c2ccccc2)cc(O)c13` (configuration not stated): the GI50 with T47D was 79.1 µM (inactive); in the experiment on PC-3 it was > 100 µM (inactive); in the experiment with 786-0 it was > 100 µM (inactive).
Take `C=CCc1cccc2cc(C(N)=O)c(=N)oc12`: the GI50 in the experiment with T47D is 41.5 µM (inactive); in the experiment on PC-3 it was > 100 µM (inactive); with 786-0, 73.8 µM (inactive).
For `O=NN(CCCl)C(=O)N[C@H]1CC[C@H](C(=O)O)CC1`, the GI50 with KM-20L2, in the experiment with DLD-1, with HOP-18 and in the experiment with XF498 was > 100 µM (inactive) throughout.
In the case of `COC(=O)C(=O)C(C(C)=O)C(=O)C(=O)Nc1ccc(C)cc1C` (configuration not stated), the GI50 in the experiment with LXFL 529, in the experiment on KM-20L2, with DLD-1 and with XF498 was > 100 µM (inactive) in each case.
Turning to `CC(C)(C)[Si](OC1CCOC1=O)(c1ccccc1)c1ccccc1` (configuration not stated), the GI50 is 20.7 µM (inactive) with LXFL 529; 22.5 µM (inactive) in the experiment on RXF 631; 14.5 µM (inactive) with KM-20L2; 22.2 µM (inactive) in the experiment on DLD-1; 18.9 µM (inactive) with HOP-18; 11.1 µM (inactive) in the experiment on XF498.
`CC(C(=O)n1nnc2ccccc21)N(c1ccccc1)c1ccccc1` (configuration not stated): the GI50 in the experiment on LXFL 529, in the experiment on KM-20L2, in the experiment on DLD-1 and with 786-0 was > 100 µM (inactive) each time.
Turning to `NS(=O)(=O)c1cc2c(cc1Cl)NC(C(=O)NNC(=O)c1ccncc1)=NS2(=O)=O`, the GI50 with LXFL 529, with KM-20L2, in the experiment on DLD-1, in the experiment with HOP-18, with XF498 and in the experiment with 786-0 was > 100 µM (inactive) throughout.
For `Cc1nc2cccc(F)c2c(=O)n1C1CCCCNC1=O` (configuration not stated), the GI50 in the experiment with T47D, in the experiment on PC-3 and in the experiment with 786-0 was > 10 µM (inactive) each time.
Consider `NC(=S)N/N=C1\CC(c2ccccc2)Nc2ccccc21` (configuration not stated), for which the GI50 in the experiment with LXFL 529 was 33.8 µM (inactive); in the experiment on KM-20L2, 18.5 µM (inactive); in the experiment on DLD-1 it was 35.2 µM (inactive); with HOP-18 it was 54.6 µM (inactive); with XF498 it was 6.76 µM (inactive).
Regarding `Cc1ccc(S(=O)(=O)N/N=C2/CCC(C(C)(C)C)CC2Br)cc1` (configuration not stated), the GI50 was 27.4 µM (inactive) in the experiment with T47D, 25.6 µM (inactive) in the experiment on PC-3 and 31.2 µM (inactive) with 786-0.
As for `C=C(C)C(=O)O[C@H]1C[C@@]23O[C@@H]2CCC(=C[C@H]2OC(=O)C(=C)[C@H]12)COC3O` (some centres not stated), the results for the GI50 in the experiment with T47D, in the experiment on PC-3 and in the experiment on 786-0 were 35.4 µM (inactive), > 100 µM (inactive) and 35.3 µM (inactive), respectively.
On to `CC[C@@H]1C[C@@H]2CN3CCc4c([nH]c5ccc(OC)cc45)C(COC(=O)c4ccc(OC)c(OC)c4)(C2)C13`, for which the GI50 is 10.6 µM (inactive) in the experiment with LXFL 529; 15.6 µM (inactive) in the experiment on KM-20L2; 58.2 µM (inactive) in the experiment with HOP-18; 17.3 µM (inactive) in the experiment with XF498; 25.2 µM (inactive) in the experiment with 786-0.
Regarding `C=C1CC(OC)(C(O)C(=O)N[C@H]2OCO[C@H]3C2O[C@H](C[C@@H](COC)OC)C(C)(C)C3OC)O[C@H](C)[C@@H]1C` (some centres not stated), the GI50 in the experiment on KM-20L2, in the experiment on DLD-1, in the experiment with HOP-18 and in the experiment on XF498 was < 0.00482 µM (active) in each case.
For `CON(C)C(=O)C(Cc1ccccc1)NC(=O)OCc1ccccc1` (configuration not stated), the GI50 in the experiment with LXFL 529 is > 100 µM (inactive); in the experiment with KM-20L2, > 100 µM (inactive); in the experiment on DLD-1 it was > 100 µM (inactive); with XF498 it was 64.3 µM (inactive).
In the case of `C=C1C(=O)C[C@@]23CCC[C@@]12CC(OCOC)C3` (some centres not stated), the GI50 in the experiment on KM-20L2 was 2.83 µM (inactive); with DLD-1, 1.84 µM (inactive); in the experiment on HOP-18, 3.6 µM (inactive); with XF498, 3.12 µM (inactive).
Take `Cc1cccc(/C=C2\CCCc3ccccc3C2=O)c1`: the GI50 was 27.2 µM (inactive) in the experiment on PC-3 and 32.1 µM (inactive) in the experiment on 786-0.
Take `CN(C)CCNC(=O)c1ccc(NCCCN(C)CCCNc2ccc(C(=O)NCCN(C)C)c3nc4ccccc4c(O)c23)c2c(O)c3ccccc3nc12`: the GI50 was 0.171 µM (active) in the experiment with T47D, < 0.01 µM (active) in the experiment with PC-3 and < 0.01 µM (active) in the experiment with 786-0.
As to `CC(=O)O[C@@H]1C2=C(C3=C([O-])C4=CC=CC(=O)C4C(=O)C3=C2[N+]#N)[C@H](OC(C)=O)[C@@H](OC(C)=O)[C@]1(C)O` (some centres not stated), the values for the GI50 in the experiment with PC-3 and in the experiment on 786-0 were 0.417 µM (active) and 0.306 µM (active), respectively.
In the case of `NC(=O)c1ncn2c1NC(=O)CC2`, the GI50 in the experiment on KM-20L2, with DLD-1, with HOP-18 and in the experiment with XF498 was > 100 µM (inactive) throughout.
For the compound `NC(=O)c1csc(C2O[C@@H](COP(=O)(O)OP(=O)(O)OC[C@H]3OC(n4cnc5c(N)ncnc54)[C@H](O)[C@@H]3O)[C@H](O)[C@@H]2O)n1` (some centres not stated), the GI50 in the experiment on LXFL 529 was > 100 µM (inactive); in the experiment with KM-20L2, > 100 µM (inactive); in the experiment with DLD-1, 45.2 µM (inactive); in the experiment with HOP-18, > 100 µM (inactive); with XF498, 33.2 µM (inactive); in the experiment with 786-0 it was 57.1 µM (inactive).
